Test results from ChEMBL document CHEMBL3885861, “Open TG-GATES”.

Species on record: Rattus norvegicus
Assay: Open TG-GATES - Regimen: Single
Assay type: toxicity, organism-based, Sprague-Dawley
Parameters: regimen Single, gender Male, age 6 weeks
Details: in vivo, po, 10 mg/kg, route gavage, dose level Low; for APTT / Bas / Eos / Fbg / Hb / Ht / Lym / MCH / MCHC / MCV / Mono / Neu / PT / Plat / RBC / Ret / WBC: tissue Blood; for KIDNEY_L / KIDNEY_R / KIDNEY_TOTAL: tissue Kidney; for LIVER: tissue Liver; for A/G / ALP / ALT / AST / BUN / CRE / Ca / Cl / DBIL / GLC / IP / K / LDH / Na / PL / RALB / TBIL / TC / TG / TP / gamma-GTP: tissue Plasma

CCCc1cc(=O)[nH]c(=S)[nH]1 [PROPYLTHIOURACIL]
TERMINAL_BW (3 h): 181.7 g | APTT (3 h): 15.5 s | Bas (3 h): 0% | Eos (3 h): 0.6% | Fbg (3 h): 202.8 mg/dL | Hb (3 h): 13.1 g/dL | Ht (3 h): 39.5% | Lym (3 h): 78.6% | MCH (3 h): 22.3 pg | MCHC (3 h): 33.3% | MCV (3 h): 66.9 fL | Mono (3 h): 8.6% | Neu (3 h): 12.4% | PT (3 h): 12.9 s | Plat (3 h): 102.8 x10_4/uL | RBC (3 h): 590.2 x10_4/ul | Ret (3 h): 10.1% | WBC (3 h): 92.2 x10_2/uL | KIDNEY_L (3 h): 0.9 g | KIDNEY_R (3 h): 0.9 g | KIDNEY_TOTAL (3 h): 1.7 g | LIVER (3 h): 8.4 g | A/G (3 h): 2 | ALP (3 h): 982.6 IU/L | ALT (3 h): 41.6 IU/L | AST (3 h): 72.2 IU/L | BUN (3 h): 12 mg/dL | CRE (3 h): 0.4 mg/dL | Ca (3 h): 11.1 mg/dL | Cl (3 h): 105 meq/L | DBIL (3 h): 0.042 mg/dL | GLC (3 h): 191.4 mg/dL | IP (3 h): 10.3 mg/dL | K (3 h): 4.8 meq/L | LDH (3 h): 92 IU/L | Na (3 h): 138.6 meq/L | PL (3 h): 122.2 mg/dL | RALB (3 h): 3.6 g/dL | TBIL (3 h): 0.3 mg/dL | TC (3 h): 69.2 mg/dL | TG (3 h): 26.6 mg/dL | TP (3 h): 5.5 g/dL | gamma-GTP (3 h): 1.4 IU/L | TERMINAL_BW (6 h): 174.6 g | APTT (6 h): 15.6 s | Bas (6 h): 0% | Eos (6 h): 0.8% | Fbg (6 h): 208.2 mg/dL | Hb (6 h): 13.7 g/dL | Ht (6 h): 41.1% | Lym (6 h): 78.4% | MCH (6 h): 22 pg | MCHC (6 h): 33.3% | MCV (6 h): 66 fL | Mono (6 h): 7.4% | Neu (6 h): 13.4% | PT (6 h): 12.8 s | Plat (6 h): 100.8 x10_4/uL | RBC (6 h): 622.8 x10_4/ul | Ret (6 h): 8.9% | WBC (6 h): 89.5 x10_2/uL | KIDNEY_L (6 h): 0.8 g | KIDNEY_R (6 h): 0.8 g | KIDNEY_TOTAL (6 h): 1.7 g | LIVER (6 h): 7.7 g | A/G (6 h): 2 | ALP (6 h): 969.6 IU/L | ALT (6 h): 33 IU/L | AST (6 h): 64.6 IU/L | BUN (6 h): 12.4 mg/dL | CRE (6 h): 0.5 mg/dL | Ca (6 h): 10.8 mg/dL | Cl (6 h): 105.4 meq/L | DBIL (6 h): 0.05 mg/dL | GLC (6 h): 181.8 mg/dL | IP (6 h): 10.6 mg/dL | K (6 h): 5.2 meq/L | LDH (6 h): 68 IU/L | Na (6 h): 138.4 meq/L | PL (6 h): 125.8 mg/dL | RALB (6 h): 3.6 g/dL | TBIL (6 h): 0.4 mg/dL | TC (6 h): 68.4 mg/dL | TG (6 h): 34.6 mg/dL | TP (6 h): 5.4 g/dL | gamma-GTP (6 h): 1.4 IU/L
